Results: doi:10.1101/208439v1 (biorxiv, 2017)
Like-named read-outs stand apart in the source and are kept apart here. One block for each compound: values may come before it.

Assays:
PRMT5 = PRMT5 (Homo sapiens, UniProt O14744); assay: biochemical
SMYD1 = molecular target: T1, SMYD1 (Homo sapiens, UniProt Q8NB12); assay: biochemical
T1 sequence (Q8NB12 1-490): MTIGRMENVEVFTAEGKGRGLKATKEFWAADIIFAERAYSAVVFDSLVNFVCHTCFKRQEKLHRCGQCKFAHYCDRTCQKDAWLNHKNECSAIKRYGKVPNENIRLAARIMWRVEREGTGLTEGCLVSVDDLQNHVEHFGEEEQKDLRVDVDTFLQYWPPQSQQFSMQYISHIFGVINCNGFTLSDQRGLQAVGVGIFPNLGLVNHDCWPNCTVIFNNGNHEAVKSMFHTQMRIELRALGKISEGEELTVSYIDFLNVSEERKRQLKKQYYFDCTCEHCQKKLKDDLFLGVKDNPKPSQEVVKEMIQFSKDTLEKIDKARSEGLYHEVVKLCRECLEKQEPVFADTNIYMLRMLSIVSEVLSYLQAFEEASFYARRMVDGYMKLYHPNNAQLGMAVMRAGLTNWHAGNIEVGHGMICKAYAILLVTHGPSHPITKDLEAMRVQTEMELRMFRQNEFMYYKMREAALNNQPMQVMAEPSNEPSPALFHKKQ

SET7/9 = molecular target: T2, SET7/9 (Homo sapiens, UniProt Q8WTS6); assay: biochemical
T2 construct: gene SETD7
T2 sequence (Q8WTS6 1-366): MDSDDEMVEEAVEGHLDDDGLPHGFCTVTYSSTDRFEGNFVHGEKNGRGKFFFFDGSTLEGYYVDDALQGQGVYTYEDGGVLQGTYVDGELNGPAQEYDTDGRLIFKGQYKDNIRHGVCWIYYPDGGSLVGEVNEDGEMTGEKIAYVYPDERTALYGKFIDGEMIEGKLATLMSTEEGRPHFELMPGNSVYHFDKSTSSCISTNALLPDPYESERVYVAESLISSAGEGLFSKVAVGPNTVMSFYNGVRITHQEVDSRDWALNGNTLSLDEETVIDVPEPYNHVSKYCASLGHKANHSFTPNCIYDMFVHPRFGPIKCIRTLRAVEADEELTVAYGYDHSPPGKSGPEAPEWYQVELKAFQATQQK

NSD2 SET domain = molecular target: T3, NSD2 SET domain (Homo sapiens, UniProt O96028); assay: SPR Biacore 8K, single-cycle kinetics, […] model; assay type: binding
T3 construct: SET domain, residues 934-1241, N-terminal His tag, E. coli
T3 sequence (O96028 934-1241): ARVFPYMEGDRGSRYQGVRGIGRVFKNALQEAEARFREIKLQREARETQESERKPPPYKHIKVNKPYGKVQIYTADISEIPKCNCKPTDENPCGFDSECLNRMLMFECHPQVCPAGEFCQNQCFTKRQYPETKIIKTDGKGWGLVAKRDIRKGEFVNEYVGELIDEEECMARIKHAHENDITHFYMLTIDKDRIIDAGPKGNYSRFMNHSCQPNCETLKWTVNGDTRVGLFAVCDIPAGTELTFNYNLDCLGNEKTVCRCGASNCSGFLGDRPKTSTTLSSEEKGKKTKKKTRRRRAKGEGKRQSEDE

PRMT1 = molecular target: T4, PRMT1 (Homo sapiens, UniProt Q99873); assay: HotSpot [3H]SAM filter-binding methyltransferase assay; assay type: biochemical
T4 construct: residues 2-371, N-terminal GST fusion, E. coli

MLL2 Complex = MLL2 Complex (Homo sapiens, UniProt O14686); assay: as above; assay type: biochemical; design: gene KMT2D; complex assembled as MLL1; MLL2 here is KMT2D (NM_003482), His tag, E. coli; with WD repeat-containing protein 5; Set1/Ash2 histone methyltransferase complex subunit ASH2; Protein dpy-30 homolog
PRMT3 = PRMT3 (Homo sapiens, UniProt O60678); assay: as above; assay type: biochemical; design: residues 2-531, N-terminal His tag, E. coli
MLL4 Complex = MLL4 Complex (Homo sapiens, UniProt Q9UMN6); assay: as above; assay type: biochemical; design: gene KMT2B; complex assembled as MLL1; MLL4 here is KMT2B (NM_014727), His tag, E. coli; with WD repeat-containing protein 5; Set1/Ash2 histone methyltransferase complex subunit ASH2; Protein dpy-30 homolog
SET1b Complex = SET1b Complex (Homo sapiens, UniProt Q9UPS6); assay: as above; assay type: biochemical; design: gene SETD1B; complex assembled as MLL1; SET1B N-terminal GST tag, E. coli; with WD repeat-containing protein 5; Set1/Ash2 histone methyltransferase complex subunit ASH2; Protein dpy-30 homolog
PRMT8 = molecular target: T5, PRMT8 (Homo sapiens, UniProt Q9NR22); assay: as above; assay type: biochemical
T5 construct: residues 61-394, N- and C-terminal His tags, E. coli

EZH1 Complex = molecular target: T6, EZH1 Complex (Homo sapiens, UniProt Q92800); assay: as above; assay type: biochemical
T6 construct: five-member complex, Flag-EED, other subunits His-tagged, insect cells; with Zinc finger protein AEBP2; Polycomb protein EED; Polycomb protein SUZ12

DNMT3b = molecular target: T7, DNMT3b (Homo sapiens, UniProt Q9UBC3); assay: as above; assay type: biochemical
T7 construct: residues 2-853, N-terminal GST fusion, insect cell/baculovirus

[1] = read-out: DA3003-1 IC50, inhibitor
[2] = histone H4, […] SAM, pH […] MgCl2, […] DTT, […] °C, single experiment
[3] = nucleosomes, […] SAM, pH […] MgCl2, […] DTT, […] °C, single experiment

T5 sequence (Q9NR22 61-394): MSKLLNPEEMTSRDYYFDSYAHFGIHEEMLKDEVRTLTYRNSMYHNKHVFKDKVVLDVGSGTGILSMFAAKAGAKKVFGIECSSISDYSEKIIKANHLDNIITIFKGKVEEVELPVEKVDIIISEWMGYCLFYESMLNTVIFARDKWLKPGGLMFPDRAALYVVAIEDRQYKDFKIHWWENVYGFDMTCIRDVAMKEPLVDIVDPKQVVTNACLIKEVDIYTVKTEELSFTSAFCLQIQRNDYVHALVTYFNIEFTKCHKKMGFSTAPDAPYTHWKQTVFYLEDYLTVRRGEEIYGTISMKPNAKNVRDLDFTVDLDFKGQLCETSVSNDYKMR
Sequence of PRMT5 (O14744 whole entry): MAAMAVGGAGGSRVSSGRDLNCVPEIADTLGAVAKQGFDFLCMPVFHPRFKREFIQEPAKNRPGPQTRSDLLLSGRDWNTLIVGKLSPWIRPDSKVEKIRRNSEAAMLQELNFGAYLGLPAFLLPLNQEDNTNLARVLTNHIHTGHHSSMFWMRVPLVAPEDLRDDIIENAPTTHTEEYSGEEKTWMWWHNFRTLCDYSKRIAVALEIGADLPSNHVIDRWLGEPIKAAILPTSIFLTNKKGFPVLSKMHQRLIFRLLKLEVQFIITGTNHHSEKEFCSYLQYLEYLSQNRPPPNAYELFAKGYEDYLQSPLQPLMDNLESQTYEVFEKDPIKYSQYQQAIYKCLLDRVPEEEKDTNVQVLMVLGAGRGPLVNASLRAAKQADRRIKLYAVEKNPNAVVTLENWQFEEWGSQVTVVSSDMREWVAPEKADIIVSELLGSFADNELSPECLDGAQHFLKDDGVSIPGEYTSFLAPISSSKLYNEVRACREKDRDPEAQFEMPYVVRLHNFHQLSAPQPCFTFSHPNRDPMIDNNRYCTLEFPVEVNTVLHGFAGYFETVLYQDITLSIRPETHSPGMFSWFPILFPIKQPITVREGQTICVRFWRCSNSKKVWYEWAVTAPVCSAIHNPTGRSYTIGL
Sequence of SET1b Complex (Q15291 whole entry): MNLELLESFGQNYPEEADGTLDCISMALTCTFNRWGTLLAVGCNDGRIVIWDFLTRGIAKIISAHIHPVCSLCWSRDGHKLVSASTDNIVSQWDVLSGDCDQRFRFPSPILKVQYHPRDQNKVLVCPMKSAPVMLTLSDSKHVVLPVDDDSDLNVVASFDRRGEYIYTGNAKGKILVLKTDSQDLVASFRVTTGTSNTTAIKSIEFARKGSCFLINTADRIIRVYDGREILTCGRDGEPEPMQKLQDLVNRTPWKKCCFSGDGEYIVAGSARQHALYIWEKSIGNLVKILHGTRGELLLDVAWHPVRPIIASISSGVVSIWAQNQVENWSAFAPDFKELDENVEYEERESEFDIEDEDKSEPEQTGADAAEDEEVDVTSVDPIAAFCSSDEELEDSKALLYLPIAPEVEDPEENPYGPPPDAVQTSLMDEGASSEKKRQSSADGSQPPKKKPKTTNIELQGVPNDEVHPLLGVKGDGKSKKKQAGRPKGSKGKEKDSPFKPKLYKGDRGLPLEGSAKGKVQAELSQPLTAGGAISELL
Sequence of SET1b Complex (Q9UPS6 1672-1966): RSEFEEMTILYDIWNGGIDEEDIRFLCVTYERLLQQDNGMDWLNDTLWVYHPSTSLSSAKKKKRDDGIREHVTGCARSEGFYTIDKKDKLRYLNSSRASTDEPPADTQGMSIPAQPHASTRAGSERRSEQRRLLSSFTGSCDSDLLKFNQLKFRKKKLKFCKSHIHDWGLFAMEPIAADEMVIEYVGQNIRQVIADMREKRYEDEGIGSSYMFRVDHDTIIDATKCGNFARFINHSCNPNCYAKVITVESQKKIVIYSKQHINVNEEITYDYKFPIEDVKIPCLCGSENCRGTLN
Sequence of SET1b Complex (Q9C005 whole entry, further chain): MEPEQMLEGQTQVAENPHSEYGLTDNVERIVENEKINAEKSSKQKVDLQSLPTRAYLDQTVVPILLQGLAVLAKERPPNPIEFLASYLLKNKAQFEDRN
Sequence of SET1b Complex (Q9UBL3 96-628, further chain): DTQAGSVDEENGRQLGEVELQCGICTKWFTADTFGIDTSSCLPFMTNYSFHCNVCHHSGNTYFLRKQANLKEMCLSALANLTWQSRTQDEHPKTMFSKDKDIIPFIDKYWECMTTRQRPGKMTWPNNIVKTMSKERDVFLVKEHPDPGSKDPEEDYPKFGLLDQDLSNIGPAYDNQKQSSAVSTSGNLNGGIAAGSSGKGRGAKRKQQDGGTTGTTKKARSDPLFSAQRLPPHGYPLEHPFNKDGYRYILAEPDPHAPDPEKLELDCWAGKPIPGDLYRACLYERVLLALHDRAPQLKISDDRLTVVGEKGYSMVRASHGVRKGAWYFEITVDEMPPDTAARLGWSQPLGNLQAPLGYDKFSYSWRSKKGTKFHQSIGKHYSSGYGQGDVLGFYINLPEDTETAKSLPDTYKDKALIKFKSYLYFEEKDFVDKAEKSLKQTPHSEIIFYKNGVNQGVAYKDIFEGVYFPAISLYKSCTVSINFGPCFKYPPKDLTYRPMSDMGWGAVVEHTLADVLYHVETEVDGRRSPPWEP
Sequence of MLL2 Complex (O14686 5319-5537): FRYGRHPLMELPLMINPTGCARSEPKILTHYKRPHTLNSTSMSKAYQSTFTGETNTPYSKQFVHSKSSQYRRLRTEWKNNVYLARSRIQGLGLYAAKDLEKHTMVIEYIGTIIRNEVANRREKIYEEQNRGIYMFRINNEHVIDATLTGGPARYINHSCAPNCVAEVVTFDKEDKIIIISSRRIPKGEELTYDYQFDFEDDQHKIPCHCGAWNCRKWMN
Sequence of MLL2 Complex (Q15291 whole entry, further chain, the tested form may be a part): as the sequence (Q15291 whole entry) above
Sequence of MLL2 Complex (Q9UBL3 96-628, further chain): as the sequence (Q9UBL3 96-628, further chain) above
Sequence of MLL2 Complex (Q9C005 whole entry, further chain, the tested form may be a part): as the sequence (Q9C005 whole entry, further chain) above
Sequence of MLL4 Complex (Q9C005 whole entry): as the sequence (Q9C005 whole entry, further chain) above
Sequence of MLL4 Complex (Q9UBL3 96-628, further chain): as the sequence (Q9UBL3 96-628, further chain) above
Sequence of MLL4 Complex (Q15291 whole entry, further chain): as the sequence (Q15291 whole entry) above
Sequence of MLL4 Complex (Q9UMN6 2490-2715): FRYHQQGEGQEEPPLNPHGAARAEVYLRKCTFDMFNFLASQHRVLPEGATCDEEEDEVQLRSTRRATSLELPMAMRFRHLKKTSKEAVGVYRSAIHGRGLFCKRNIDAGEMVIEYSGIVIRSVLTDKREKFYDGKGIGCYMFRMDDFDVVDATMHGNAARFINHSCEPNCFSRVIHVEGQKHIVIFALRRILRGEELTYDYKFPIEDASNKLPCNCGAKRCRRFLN
T4 sequence (Q99873 2-353 isoform Q99873-3): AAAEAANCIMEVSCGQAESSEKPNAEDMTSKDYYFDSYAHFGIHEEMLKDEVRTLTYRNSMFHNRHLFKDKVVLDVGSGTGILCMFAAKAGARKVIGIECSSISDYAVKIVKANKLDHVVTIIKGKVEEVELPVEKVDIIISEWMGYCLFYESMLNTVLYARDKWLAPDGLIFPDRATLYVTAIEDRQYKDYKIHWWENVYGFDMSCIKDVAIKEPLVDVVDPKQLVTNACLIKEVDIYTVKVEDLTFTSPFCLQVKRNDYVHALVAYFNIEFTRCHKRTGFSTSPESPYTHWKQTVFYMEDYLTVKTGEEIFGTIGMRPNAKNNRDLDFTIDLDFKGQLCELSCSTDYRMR
Sequence of PRMT3 (O60678 2-531): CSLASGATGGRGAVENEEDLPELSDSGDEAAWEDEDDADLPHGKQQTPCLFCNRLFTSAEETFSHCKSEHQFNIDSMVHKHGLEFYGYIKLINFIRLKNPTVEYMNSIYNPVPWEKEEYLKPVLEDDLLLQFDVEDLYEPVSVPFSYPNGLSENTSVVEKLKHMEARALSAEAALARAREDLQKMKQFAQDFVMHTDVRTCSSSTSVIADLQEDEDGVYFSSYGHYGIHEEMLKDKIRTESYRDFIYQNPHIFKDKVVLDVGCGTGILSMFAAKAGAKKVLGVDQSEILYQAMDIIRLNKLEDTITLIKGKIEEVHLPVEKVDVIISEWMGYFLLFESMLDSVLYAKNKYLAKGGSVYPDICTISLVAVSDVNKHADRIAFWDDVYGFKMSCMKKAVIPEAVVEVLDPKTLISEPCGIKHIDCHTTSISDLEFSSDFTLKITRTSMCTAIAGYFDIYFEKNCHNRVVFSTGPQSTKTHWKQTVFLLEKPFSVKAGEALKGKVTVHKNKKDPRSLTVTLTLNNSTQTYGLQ

IC50 (PRMT5; [1]): 0.65 µM
IC50 (SMYD1; [1]): 1 µM
IC50 (SET7/9; [1]): 1.4 µM
Structure (SMILES): O=C1C(Cl)=C(NCCN2CCOCC2)C(=O)c2ncccc21 [DA3003-1]

Kd (NSD2 SET domain; immobilized SET domain, pH […] °C, […] MgCl2, […] TCEP, […] DMSO): 8.4 µM
IC50 (PRMT1; [2]): 68 µM
IC50 (PRMT5): 17 µM
IC50 (SMYD1): 21 µM
IC50 (MLL2 Complex; [3]): 18 µM
IC50 (PRMT3; [2]): 5.7 µM
IC50 (MLL4 Complex; [3]): 1 µM
IC50 (SET1b Complex; core histone, […] SAM, pH […] MgCl2, […] DTT, […] °C, single experiment): 8 µM
IC50 (PRMT8; [2]): 71 µM
IC50 (EZH1 Complex; core histone, […] SAM, pH […] EDTA, […] DTT, […] °C, single experiment): 40 µM
IC50 (SET7/9): 52 µM
IC50 (DNMT3b; lambda DNA, […] SAM, pH […] EDTA, […] DTT, […] °C, single experiment): 24 µM
Structure (SMILES): COc1cccc(-n2nc(C(=O)O)cc2-c2ccc(C3CCCCC3)c(Cl)c2)c1 [TC LPA5 4]

Kd (NSD2 SET domain): 8.3 µM
IC50 (PRMT1): 83 µM
IC50 (MLL2 Complex): 4.6 µM
IC50 (PRMT3): 36 µM
IC50 (MLL4 Complex): 0.52 µM
IC50 (SET1b Complex): 7.1 µM
IC50 (PRMT8): 34 µM
IC50 (EZH1 Complex): 66 µM
IC50 (DNMT3b): > 100 µM
Structure (SMILES): CC1(C)CCC(CN2CCN(c3ccc(C(=O)NS(=O)(=O)c4ccc(NCC5CCOCC5)c([N+](=O)[O-])c4)c(Oc4cnc5[nH]ccc5c4)c3)CC2)=C(c2ccc(Cl)cc2)C1 [ABT-199]
